# Source: publication PMC6085999, “Elucidating the Inhibitory Potential of Designed Peptides Against Amyloid Fibrillation and Amyloid Associated Cytotoxicity” (Frontiers in Chemistry, 2018)
# Residues, ends and D or L forms follow the SMILES beside them.
# Molecular target: T1, Human insulin (HI) amyloid fibrillation (Homo sapiens, UniProt P01308)
# T1 construct: Insulin is a covalent dimer of two polypeptide chains (chain A and chain B) having 21 and 30 amino acid residues, respectively
# Experiment: ThT fluorescence assay of insulin fibrillation
# Assay type: biochemical
# Details: for IC50: 3-parameter dose response fit of normalized ThT intensity at 483 nm vs log [peptide], insulin incubated at 60°C for 72 h, 50 mM acetate buffer pH 2.0, peptide 0-750 μM, triplicates, read-out: IC50 against insulin aggregation; for percent inhibition of aggregation (ThT fluorescence): insulin incubated at 60°C for 72 h with peptide (Supplementary Figure S2), concentration not given
# Procedure: Stock solution of insulin was prepared by dissolving insulin lyophilized powder in 50 mM acetate buffer, pH 2.0, and insulin concentration was determined by measuring absorbance at 276 nm, with the extinction coefficients of […] for 1 mg/ml. Fibrils were prepared by incubating insulin solution at 60°C for 72 h.
# ThT stock solution was prepared by dissolving ThT in double distilled water, and the resulting solution was passed through a 0.2 micron millipore filter. The concentration of ThT was determined by measuring absorbance at 412 nm with a molar extinction coefficient of 36,600 M^−1cm^−1. ThT fluorescence assay was carried out on Shimadzu fluorescence spectrophotometer (RF-5301 PC). Insulin samples were incubated with or without peptides; from each set, samples were withdrawn at definite time intervals and mixed with ThT to have the final protein and dye concentration of 20 μM. The ThT was excited at 440 nm, and fluorescence spectra were recorded from 460 to 650 nm. Buffer (pH 2.0) was used for dilution, and spectra were corrected for the respective blanks. All measurements were performed in triplicates. All curves were fitted as described previously (Chaturvedi et al., [2015]).
# T1 sequence (P01308 25-54 limits assumed): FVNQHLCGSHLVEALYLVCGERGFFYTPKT
# T1 sequence (P01308 90-110 limits assumed): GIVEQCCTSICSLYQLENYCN
IC50 [µM],percent inhibition of aggregation (ThT fluorescence) [%],SMILES
446,56,"CC(C)[C@H](N)C(=O)N[C@H](C(=O)N[C@H](C(=O)N[C@H](C(=O)N[C@H](C(=O)O)C(C)C)C(C)C)C(C)C)C(C)C [Peptide P5, Val-Val-Val-Val-Val] (H-VVVVV-OH)"
278,82,"CC[C@H](C)[C@H](NC(=O)[C@@H](N)C(C)C)C(=O)N[C@@H](Cc1ccccc1)C(=O)N[C@@H](Cc1ccc(O)cc1)C(=O)N[C@H](C(=O)O)[C@@H](C)O [Peptide P4, Val-Ile-Phe-Tyr-Thr] (H-VIFYT-OH)"
